Assay results: patent US10196393B2, “JAK inhibitors containing a 4-membered heterocyclic amide” (THERAVANCE BIOPHARMA R&D IP, LLC, priority 2017, dated 2019)

Columns and labels:
[1] = test system: IL-2/anti-CD3 stimulated STAT5 phosphorylation in CD4+ T cells; experiment: Cellular JAK potency assay: inhibition of IL-2 stimulated pSTAT5 in CD4+ T cells; format: cell-based; details: 0.5 h; CD4+ T cells in human PBMCs, 30 min stimulation; read-out: pIC50, inhibition of IL-2 stimulated pSTAT5 (converted)
Method: Assay 9: Cellular JAK Potency Assay: Inhibition of IL-2 Stimulated pSTAT5 in CD4+ T Cells
The potency of the test compound for inhibition of interleukin-2 (IL-2)/anti-CD3 stimulated STAT5 phosphorylation was measured in CD4-positive (CD4+) T cells in human peripheral blood mononuclear cells (PBMCs) isolated from human whole blood (Stanford Blood Center) using flow cytometry. Because IL-2 signals through JAK, this assay provides a measure of JAK cellular potency. […]
(2) After cytokine stimulation, cells were fixed with pre warmed fix solution (200 μL; BD Biosciences) for 10 min at 37° C., 5% CO2, washed twice with DPBS buffer (1 mL, Life Technologies), and resuspended in ice cold Perm Buffer III (1000 μL, BD Biosciences) for 30 min at 4° C. […] After incubation, cells were washed twice in FACS buffer before being analyzed using a LSRII flow cytometer (BD Biosciences). To determine the inhibitory potency of test compounds in response to IL-2/anti-CD3, the median fluorescent intensity (MFI) of pSTAT5 was measured in CD4+ T cells. IC50 values were determined from analysis of the inhibition curves of MFI vs compound concentration. Data are expressed as pIC50 (negative decadic logarithm IC50) values.

JAK1 = JAK1 (Homo sapiens (Human), UniProt P23458); experiment: Biochemical JAK kinase assay (LanthaScreen), JAK1; details: converted from pIC50 with Cheng-Prusoff equation
Method: (§1) Assay 1: Biochemical JAK Kinase Assays
(§2) A panel of four LanthaScreen JAK biochemical assays (JAK1, 2, 3 and Tyk2) were carried in a common kinase reaction buffer (50 mM HEPES, pH 7.5, 0.01% Brij-35, 10 mM MgCl2, and 1 mM EGTA). Recombinant GST-tagged JAK enzymes and a GFP-tagged STAT1 peptide substrate were obtained from Life Technologies.
(§3) Serially diluted compounds were pre-incubated with each of the four JAK enzymes and the substrate in white 384-well microplates (Corning) at ambient temperature for 1 h. ATP was subsequently added to initiate the kinase reactions in 10 μL total volume, with 1% DMSO. […] The plates were allowed to incubate at ambient temperature for 1 h before being read on the EnVision reader (Perkin Elmer).
(§4) For dose-response analysis, percent inhibition data were plotted vs. compound concentrations, and IC50 values were determined from a 4-parameter robust fit model with the Prism software (GraphPad Software). Results were expressed as pIC50 (negative logarithm of IC50) and subsequently converted to pKi (negative logarithm of dissociation constant, Ki) using the Cheng-Prusoff equation.

Tyk2 = Tyk2 (Homo sapiens (Human), UniProt P29597); experiment: Biochemical JAK kinase assay (LanthaScreen), Tyk2; details: converted from pIC50 with Cheng-Prusoff equation
Method: as §1, §2, §3, §4

[2] = test system: IL-13 induced pSTAT6 induction in lung tissue; experiment: Murine model of IL-13 induced pSTAT6 induction in lung tissue; format: in vivo; details: mouse lung, 1 mg/mL 50 μL oral aspiration, IL-13 challenge 4 h after dose, lungs at 5 hours
Source text: Assay 4: Murine (Mouse) Model of IL-13 Induced pSTAT6 Induction in Lung Tissue
Il-13 is an important cytokine underlying the pathophysiology of asthma (Kudlacz et al. Eur. J. Pharmacol, 2008, 582,154-161). IL-13 binds to cell surface receptors activating members of the Janus family of kinases (JAK) which then phosphorylate STAT6 and subsequently activates further transcription pathways. In the described model, a dose of IL-13 was delivered locally into the lungs of mice to induce the phosphorylation of STAT6 (pSTAT6) which is then measured as the endpoint.
Adult balb/c mice from Harlan were used in the assay. On the day of study, animals were lightly anesthetized with isoflurane and administered either vehicle or test compound (1 mg/mL, 50 μL total volume over several breaths) via oral aspiration. Animals were placed in lateral recumbency post dose and monitored for full recovery from anesthesia before being returned to their home cage. Four hours later, animals were once again briefly anesthetized and challenged with either vehicle or IL-13 (0.03 μg total dose delivered, 50 μL total volume) via oral aspiration before being monitored for recovery from anesthesia and returned to their home cage. One hour after vehicle or IL-13 administration, lungs were collected for both pSTAT6 detection using an anti-pSTAT6 ELISA (rabbit mAb capture/coating antibody; mouse mAb detection/report antibody: anti-pSTAT6-pY641; secondary antibody: anti-mouse IgG-HRP) and analyzed for total drug concentration as described above in Assay 3.
Selected compounds of the invention were tested in the assay. Activity in the model is evidenced by a decrease in the level of pSTAT6 present in the lungs of treated animals at 5 hours compared to the vehicle treated, IL-13 challenged control animals. The difference between the control animals which were vehicle-treated, IL-13 challenged and the control animals which were vehicle-treated, vehicle challenged dictated the 0% and 100% inhibitory effect, respectively, in any given experiment.

[3] = test system: IL-2/anti-CD3 stimulated IFNγ in human PBMCs; experiment: Cellular JAK potency assay: inhibition of IL-2/anti-CD3 stimulated IFNγ in human PBMCs; format: cell-based; details: PBMC, 24 h stimulation, read-out: pIC50, inhibition of IL-2/anti-CD3 stimulated IFNγ (converted)
Source text: Data are expressed as pIC50 (negative decadic logarithm IC50) values.

[4] = test system: IL-6 stimulated STAT3 phosphorylation in CD3+ T cells; experiment: Cellular JAK potency assay: inhibition of IL-6 stimulated pSTAT3 in CD3+ T cells; format: cell-based; details: T-cell; CD3+ T cells in human PBMCs; read-out: pIC50, inhibition of IL-6 stimulated pSTAT3 (converted)
Source text: Assay 11: Cellular JAK Potency Assay: Inhibition of IL-6 Stimulated pSTAT3 in CD3+ T Cells
A protocol analogous to that of Assay 10 was used to determine the potency of the test compound for inhibition of interleuken-6 (IL-6) stimulated STAT3 phosphorylation. An Alexa Fluor 647 conjugated anti-pSTAT3 antibody (pY705, Clone 4/P, BD Biosciences) was used to detect STAT3 phosphorylation.

JAK1, sequence (P23458 whole entry): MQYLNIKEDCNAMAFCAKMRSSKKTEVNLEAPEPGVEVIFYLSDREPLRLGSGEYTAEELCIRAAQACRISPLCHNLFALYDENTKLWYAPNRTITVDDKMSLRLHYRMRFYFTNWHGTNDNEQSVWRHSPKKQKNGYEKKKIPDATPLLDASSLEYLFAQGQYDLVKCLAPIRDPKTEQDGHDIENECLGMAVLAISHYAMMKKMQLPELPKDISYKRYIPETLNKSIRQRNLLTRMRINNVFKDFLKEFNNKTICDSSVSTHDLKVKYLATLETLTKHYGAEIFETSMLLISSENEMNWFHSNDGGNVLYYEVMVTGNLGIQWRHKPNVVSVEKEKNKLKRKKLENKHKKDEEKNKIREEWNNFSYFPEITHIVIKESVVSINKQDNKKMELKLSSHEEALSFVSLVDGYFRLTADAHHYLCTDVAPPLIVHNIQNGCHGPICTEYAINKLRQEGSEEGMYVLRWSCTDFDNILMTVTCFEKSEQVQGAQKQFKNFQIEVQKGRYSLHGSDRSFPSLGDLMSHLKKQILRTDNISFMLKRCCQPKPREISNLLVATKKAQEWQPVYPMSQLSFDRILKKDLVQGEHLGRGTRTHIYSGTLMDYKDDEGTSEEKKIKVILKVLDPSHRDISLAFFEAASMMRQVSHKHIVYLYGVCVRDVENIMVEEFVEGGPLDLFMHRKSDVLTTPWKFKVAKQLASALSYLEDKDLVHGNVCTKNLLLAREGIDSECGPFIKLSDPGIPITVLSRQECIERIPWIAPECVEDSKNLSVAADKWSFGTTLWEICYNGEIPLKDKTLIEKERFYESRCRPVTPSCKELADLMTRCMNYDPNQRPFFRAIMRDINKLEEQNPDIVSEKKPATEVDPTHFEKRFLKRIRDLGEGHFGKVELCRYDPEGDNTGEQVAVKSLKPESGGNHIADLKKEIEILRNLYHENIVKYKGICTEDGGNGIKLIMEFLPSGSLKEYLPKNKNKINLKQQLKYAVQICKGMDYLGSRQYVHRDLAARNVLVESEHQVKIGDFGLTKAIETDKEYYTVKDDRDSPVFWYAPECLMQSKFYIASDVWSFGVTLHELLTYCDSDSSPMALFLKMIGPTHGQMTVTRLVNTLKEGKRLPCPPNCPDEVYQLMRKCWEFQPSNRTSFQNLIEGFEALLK
Tyk2, sequence (P29597 whole entry): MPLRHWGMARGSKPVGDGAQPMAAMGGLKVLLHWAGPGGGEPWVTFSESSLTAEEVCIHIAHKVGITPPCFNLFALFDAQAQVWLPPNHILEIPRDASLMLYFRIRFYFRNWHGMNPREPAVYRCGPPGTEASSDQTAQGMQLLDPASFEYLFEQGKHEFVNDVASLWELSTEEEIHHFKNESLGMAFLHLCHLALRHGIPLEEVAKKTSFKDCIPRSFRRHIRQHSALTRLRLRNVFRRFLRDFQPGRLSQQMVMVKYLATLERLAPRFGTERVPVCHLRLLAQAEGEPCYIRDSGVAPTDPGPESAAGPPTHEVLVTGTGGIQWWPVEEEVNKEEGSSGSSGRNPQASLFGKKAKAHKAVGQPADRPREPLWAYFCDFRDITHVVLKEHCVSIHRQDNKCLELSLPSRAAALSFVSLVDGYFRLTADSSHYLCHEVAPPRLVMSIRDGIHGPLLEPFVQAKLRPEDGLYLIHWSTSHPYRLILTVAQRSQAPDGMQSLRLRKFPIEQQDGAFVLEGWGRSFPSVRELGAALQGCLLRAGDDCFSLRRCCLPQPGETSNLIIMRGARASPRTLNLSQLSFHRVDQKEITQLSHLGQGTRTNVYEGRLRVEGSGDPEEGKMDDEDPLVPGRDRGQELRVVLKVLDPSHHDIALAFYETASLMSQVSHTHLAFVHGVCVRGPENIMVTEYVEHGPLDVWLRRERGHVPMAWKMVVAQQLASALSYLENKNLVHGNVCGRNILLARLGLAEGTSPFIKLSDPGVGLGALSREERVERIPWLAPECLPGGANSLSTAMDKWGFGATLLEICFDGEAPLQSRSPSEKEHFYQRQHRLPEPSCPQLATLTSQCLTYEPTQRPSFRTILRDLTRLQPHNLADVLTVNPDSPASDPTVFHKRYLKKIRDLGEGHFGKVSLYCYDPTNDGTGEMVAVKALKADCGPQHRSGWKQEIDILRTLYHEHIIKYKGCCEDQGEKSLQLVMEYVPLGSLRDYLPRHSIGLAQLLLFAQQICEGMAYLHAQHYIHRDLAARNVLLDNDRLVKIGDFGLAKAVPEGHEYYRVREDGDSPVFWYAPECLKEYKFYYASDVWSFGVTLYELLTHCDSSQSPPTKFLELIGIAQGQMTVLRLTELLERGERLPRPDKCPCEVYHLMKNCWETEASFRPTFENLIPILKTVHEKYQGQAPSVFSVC

**Q.** What does the source list for `CCc1cc(O)c(F)cc1-c1ccc2c(-c3nc4c([nH]3)CN(C(C)C)[C@H](C(=O)N3CC(N(C)C)C3)C4)n[nH]c2c1` [Example 2, (S)-(3-(dimethylamino)azetidin-1-yl)(2-(6-(2-ethyl-5-fluoro-4-hydroxyphenyl)-1H-indazol-3-yl)-5-isopropyl-4,5,6,7-tetrahydro-3H-imidazo[4,5-c]pyridin-6-yl)methanone]?
**A.** IC50 [1]: ~50.1 nM; Ki (JAK1): 0.04 nM; Ki (Tyk2): 0.32 nM; pSTAT6 inhibition Assay 4 [2]: B (B represents between 40% and 60% inhibition); IC50 [3]: ~79.4 nM; IC50 [4]: 63.1 nM
